Among the data in the OligoGym collection are target mRNA inhibition values, retold here.

Where “and” joins values, the source holds several entries; their conditions need not be identical. Equal values may be shown once. After the bases stand the sugars from the 5' end (letter, count) and the backbone: PS all phosphorothioate, else s phosphorothioate and o phosphodiester by linkage. Methylation of C is not given here. e = 2'-O-(2-methoxyethyl) (MOE); k = constrained ethyl (cEt); d = 2'-deoxy (DNA)

One series deals with IRF4. Particulars: ASO, MM.1R, 1 µM.
Consider “CAAGCAGTGATGTCAG (sugars kddddddddddkekek, PS)”, for which the target mRNA inhibition was 35% and 43%. With CAAGTGTCTAAAGTCC (sugars k3 d10 k3, PS), the target mRNA inhibition was 3%. For “CAAGTGTCTAAAGTCC (sugars kkdddddddddekeke, PS)”, the target mRNA inhibition is 23% and 25%. On the same count and under the same terms, with CAATCTTAACCTGGAG (sugars k3 d10 k3, PS) the figure was 40%; with “CACATCAATGTTTTAG (sugars k2 d9 e3 k2, PS)”, 12% and 11%. Same read-out and setting: with “CACATCAATGTTTTAG (sugars kdddddddddkekeke, PS)” the figure was -2% and 18%. As to “CACATCAATGTTTTAG (sugars kkdddddddddkdkdk, PS)”, the target mRNA inhibition is 28% and 37%. Still for that read-out and setting: next, “CACATCAATGTTTTAG (sugars kkdddddddddkekek, PS)”: 19% and 34%; CACTATTCGAGAGAAA (sugars k3 d10 k3, PS): 30%; CACTGCCGTGATCTGA (sugars k3 d10 k3, PS): 9%. On the same count and under the same terms, with CAGATTAATAGTAAGT (sugars k3 d10 k3, PS) the figure was -12%; with CAGATTTACACCGTTG (sugars k3 d10 k3, PS), 15%.

Staying with this series, now noted: ASO, SK-MEL-28, 4 µM.
Take CAAGCTTTCATTTGGG (sugars k3 d10 k3, PS): the target mRNA inhibition came to 74%. For CAAGGAGGCGGGCCTT (sugars k3 d10 k3, PS), the target mRNA inhibition was -2%.

With CAAGGCTACAGGCACG (sugars k3 d10 k3, PS), the target mRNA inhibition was determined as 51%. Still for that read-out and setting: with CAATAGTCTAGCTGGG (sugars k3 d10 k3, PS) the figure was 63%; with CACAGGCGCGGACGCA (sugars k3 d10 k3, PS), 14%. Still for that read-out and setting: next, CACATTTGAGAGCTAC (sugars k3 d10 k3, PS): 74%; CACCAAGGTCCAGAGT (sugars k3 d10 k3, PS): 20%; CACCAGGTTAAACAGG (sugars k3 d10 k3, PS): -8%. The same measure, in the same setting: next, CACCATTCAGACAGAT (sugars k3 d10 k3, PS): -67%. As to CACCCCTTCTTGTGGA (sugars k3 d10 k3, PS), the target mRNA inhibition was determined as 40%. On the same count and under the same terms, with CACCGAACACACCAGG (sugars k3 d10 k3, PS) the figure was 20%.

In the case of CACGAAGGGCAGTGCC (sugars k3 d10 k3, PS), the target mRNA inhibition was found to be 17%. Take CACGAGGAAGCATAGA (sugars k3 d10 k3, PS): the target mRNA inhibition was found to be 56%. On the same count and under the same terms, next, CACGCAATGGCAAAAG (sugars k3 d10 k3, PS): 19%; CACGGGAATTTCCATT (sugars k3 d10 k3, PS): 71%; CACTAAGTGGGCTCTG (sugars k3 d10 k3, PS): 41%. The same measure, in the same setting: next, CACTACCTGCAGCCAA (sugars k3 d10 k3, PS): 31%; CACTATTAAACAGCAC (sugars k3 d10 k3, PS): 19%. Same read-out and setting: with CACTCAGCAAGTGTCT (sugars k3 d10 k3, PS) the figure was 50%. Regarding CACTGAGGCCTTAATG (sugars k3 d10 k3, PS), the target mRNA inhibition was determined as 34%.

On to CACTGGCATCGAGACG (sugars k3 d10 k3, PS), for which the target mRNA inhibition was determined as 61%.

As for CACTGTTAAAGCAGCA (sugars k3 d10 k3, PS), the target mRNA inhibition worked out at 81%. Still for that read-out and setting: next, CAGAAAATATGTAACG (sugars k3 d10 k3, PS): 22%; CAGAAGTACGAGCACA (sugars k3 d10 k3, PS): 47%. Take CAGATGGCATGCGAAT (sugars k3 d10 k3, PS): the target mRNA inhibition was 35%. CAGCACCGTGTGGAAA (sugars k3 d10 k3, PS): the target mRNA inhibition is 51%. On the same count and under the same terms, next, CAGCTCACCGCGCTCA (sugars k3 d10 k3, PS): 42%.
